The values below come from publication PMC10862539, “Chelation of Mitochondrial Iron as an Antiparasitic Strategy” (ACS Infectious Diseases, 2024).

Test [1] relates to murine macrophage. Description: Murine macrophage axenic monoculture EC50. The class given is cell-based, mouse. To be noted: axenic monoculture, read-out: EC50 axenic murine macrophage.
The next test concerns C. neoformans. Description: Drug sensitivity assay, C. neoformans (OD600). It is filed as cell-based, Cryptococcus neoformans. The following applies: Cryptococcus neoformans; reference compound; C. neoformans; 72 h; read-out: control EC50. The procedure: (§1) All organisms were cultivated according to the conditions summarized in Table S2, which also includes strain specifications. Dose–response curves were obtained by their cultivation on 96 well plates in a 2-fold series dilution of the appropriate drug, in a total volume of 200 μL (with the exception of P. falciparum, where the total volume was 100 μL). Iron supplementation was achieved by mixing the compound with Fe-NTA in an equimolar ratio prior to setting up the experiment. Results were plotted and processed using Prism 8.0 (GraphPad Software). A two-tailed unpaired t-test was performed to assess the significance of the difference between mitoDFO with and without added iron. Selectivity was calculated as the ratio of the average EC50 value for human fibroblasts to the average EC50 value for the appropriate pathogen. All data were obtained from a minimum of three independent biological replicates.

Test [2] deals with intracellular Leishmania mexicana amastigotes. Put plainly: Intracellular L. mexicana infection assay, GFP amastigotes in macrophages. It is filed as cell-based. To be noted: intracellular amastigotes, 72 h treatment, read-out: EC50 infection assay Leishmania mexicana. Here is the method: (§2) Approximately 10 000 murine macrophages per well were seeded on 96 well plate, and a suspension of 60 000 L. mexicana GFP-expressing promastigotes was added to each well and left to infect the mammal cells for 72 h in a cultivation medium under the conditions described in Table S2. 2-fold dilution series starting with 100 μM of either mitoDFO, DFO, or Amphotericin B in a regular growth medium were added, and cultures were incubated for further 72 h in the same conditions. Macrophage cells were washed and resuspended in growth medium and detached by pipetting, and their concentration in each well was measured on a Guava EasyCyte 8HT flow cytometer (Luminex). The GFP signal of internalized L. mexicana amastigotes in each macrophage was detected using a 488 nm excitation laser and a 525/30 nm detector. Median fluorescence graphs were plotted, and EC50 values for both macrophages and intracellular L. mexicana were calculated using Prism 8.0 (GraphPad Software).

In the next test the test system is N. fowleri. Put plainly: Drug sensitivity assay, N. fowleri (flow cytometry). The class given is cell-based. The following applies: Naegleria fowleri; reference compound; N. fowleri; 72 h; read-out: control EC50. Here is the method: as §1
(A flow cytometer gives signals particle by particle.)

In another test the test system is L. major (promastigote). Description: Drug sensitivity assay, L. major promastigote (flow cytometry). It is filed as cell-based. The following applies: Leishmania major; reference compound; L. major (promastigote); 120 h; read-out: control EC50. The procedure: as §1
A further test deals with C. albicans. Put plainly: Drug sensitivity assay, C. albicans (OD600). It is filed as cell-based, Candida albicans. The following applies: Candida albicans; reference compound; C. albicans; 48 h; read-out: control EC50. Here is the method: as §1
The subject of test [3] is murine macrophage. Description: Intracellular L. mexicana infection assay, macrophage population. It is filed as cell-based, mouse. To be noted: infected macrophages, 72 h treatment, read-out: EC50 infection assay murine macrophage. The procedure: as §2
A further test relates to A. castellanii. Description: Drug sensitivity assay, A. castellanii (flow cytometry). The following applies: Acanthamoeba castellanii; reference compound; A. castellanii; 96 h; read-out: control EC50. The class given is cell-based, Acanthamoeba castellanii. Here is the method: as §1
For a further test, the system named is L. mexicana (amastigote). Description: Drug sensitivity assay, axenic L. mexicana amastigote (flow cytometry). It is filed as cell-based, Leishmania mexicana. The procedure:
as §1

The subject of another test is B. divergens. Put plainly: Drug sensitivity assay, B. divergens in bovine erythrocytes (flow cytometry). To be noted: Babesia divergens, Erythrocyte; reference compound; B. divergens; 48 h; read-out: control EC50. The class given is cell-based, Babesia divergens. Here is the method: as §1
In another test the test system is G. intestinalis. Description: Drug sensitivity assay, G. intestinalis (flow cytometry). The class given is cell-based. To be noted: Giardia duodenalis; reference compound; G. intestinalis; 24 h; read-out: control EC50. Here is the method: as §1
The next test has as its system P. falciparum. Description: Drug sensitivity assay, P. falciparum (SYBR green I). To be noted: Plasmodium falciparum, 48 h, read-out: control EC50. It is filed as cell-based, Plasmodium falciparum. Here is the method: as §1
Another test concerns T. brucei 427 (BSF). Description: Drug sensitivity assay, T. brucei 427 bloodstream form (resazurine). The following applies: Trypanosoma brucei. It is filed as cell-based, Trypanosoma brucei. Here is the method: as §1
In the next test the test system is T. brucei STIB (BSF). Description: Drug sensitivity assay, T. brucei STIB bloodstream form (resazurine). The class given is cell-based, Trypanosoma brucei. The following applies: Trypanosoma brucei; reference compound; T. brucei STIB (BSF); 72 h; read-out: control EC50. Here is the method: as §1
A general note: The colour change of resazurin is a common sign of viable cells or microbes.

For another test, the system named is T. gambiense (BSF). Put plainly: Drug sensitivity assay, T. gambiense bloodstream form (resazurine). The class given is cell-based, Trypanosoma gambiense. To be noted: Trypanosoma brucei; reference compound; T. gambiense (BSF); 72 h; read-out: control EC50. Here is the method: as §1

Read-outs that look alike come from different tables or passages of the source.

For the compound `C[C@@H]1[C@H](O)[C@@H](C)/C=C/C=C/C=C/C=C/C=C/C=C/C=C/[C@H](O[C@@H]2O[C@H](C)[C@@H](O)[C@H](N)[C@@H]2O)C[C@@H]2O[C@](O)(C[C@@H](O)C[C@@H](O)[C@H](O)CC[C@@H](O)C[C@@H](O)CC(=O)O[C@H]1C)C[C@H](O)[C@H]2C(=O)O` [AmpB, amphotericin B, reference compound], the EC50 (in general, the concentration giving half of the maximal effect) is above 25000 nM in the test on murine macrophage [1] (Mus musculus, Macrophage); 200 ± 100 nM in the test on C. neoformans; 3770 ± 400 nM in test [2] (Leishmania mexicana, Macrophage); 69 ± 9 nM in the test on N. fowleri; 24 ± 8 nM in the test on L. major (promastigote); 1500 ± 100 nM in the test on C. albicans. Besides, the EC50 was found to be 29100 ± 5910 nM in the test on murine macrophage [3] (Mus musculus, Macrophage); 8100 ± 1600 nM with A. castellanii; 330 ± 80 nM in the test on L. mexicana (amastigote) (Leishmania mexicana, axenic monoculture, read-out: EC50 axenic Leishmania mexicana); 320 ± 35 nM with L. mexicana (amastigote) (Leishmania mexicana, reference compound, L. mexicana (amastigote), 120 h, read-out: control EC50).

On to `CN(C)CCOc1ccc(/C(=C(/CCCCCCCCCC[P+](c2ccccc2)(c2ccccc2)c2ccccc2)c2ccccc2)c2ccccc2)cc1` [MitoTam], for which the EC50 in the test on murine macrophage [1] was 390 nM; in [2] it was around 100 nM; in the test on murine macrophage [3], 260 nM; in the test with L. mexicana (amastigote) (axenic monoculture, read-out: EC50 axenic Leishmania mexicana) it was 350 nM.

For `O=C1C(O)=C([C@H]2CC[C@H](c3ccc(Cl)cc3)CC2)C(=O)c2ccccc21` [atovaquone, reference compound], the concentration giving a half-maximal response (EC50) in the test on B. divergens was found to be 8 ± 1 nM.

Take `O=C(Cn1ccnc1[N+](=O)[O-])NCc1ccccc1` [benznidazole]: in the test with G. intestinalis, the EC50 was 2600 ± 1400 nM.

Consider `CCN(CC)CCCC(C)Nc1ccnc2cc(Cl)ccc12` (stereo not drawn) [chloroquine, reference compound], for which the EC50 with P. falciparum was 15 ± 1 nM.

With `CSc1ccc(OCc2ncc([N+](=O)[O-])n2C)cc1` [fexinidazole], the concentration for a half-maximal effect (EC50) in the test on T. brucei 427 (BSF) (T. brucei 427, comparison drug in text, read-out: EC50) came out at 4840 nM.

As to `N=C(N)c1ccc(OCCCCCOc2ccc(C(=N)N)cc2)cc1` [pentamidine], the half-maximal effective concentration (EC50) in the test with T. brucei STIB (BSF) was 1 ± 0.4 nM; in the test with T. brucei 427 (BSF) (reference compound, T. brucei 427 (BSF), 72 h, read-out: control EC50), 7 ± 1 nM; with T. gambiense (BSF), 2 ± 0.5 nM.
